Results from patent US11414489B2, “Combination therapy with a hyaluronan-degrading enzyme and an immune checkpoint inhibitor” (HALOZYME, INC., priority 2014, dated 2022).

Columns and labels:
[1] = glucocorticoid administration; route (IV or PO); cited from earlier work
[2] = tested on: parental MH194+PSC4 syngeneic tumors; assay: Tumor growth in parental MH194+PSC4 syngeneic tumor mouse model (tumor volume, TGI); assay type: in vivo, C57BL/6 mice; conditions: for Tumor volume, Day 0: Day 0 (baseline); for Tumor volume, Day 0 / Tumor volume, Day 3 / Tumor volume, Day 7 / Tumor volume, Day 10 / Tumor volume, Day 14 / Tumor volume, Day 17 / Tumor volume, Day 21: mean ± SEM; for TGI (tumor growth inhibition): last day vs vehicle
Procedure: MH194 mouse pancreatic carcinoma cells (derived from the KrasLSL.G12D/+p53R172H/+PdxCretg/+ genetically engineered mouse model) were engineered to constitutively express human hyaluronan synthase 3 (HAS3) as in Example 1A. Stably transduced cells, designated MH194/HAS3 cells, were selected by hygromycin treatment. MH194/HAS3 and parental MH194 cells were maintained in tissue culture as an adherent monolayer in DMEM medium supplemented with 2 mM L-glutamine and 10% fetal bovine serum at 37° C. and 5% CO2.
Pancreas from C57BL/6 mice were minced with razor blades and placed in 2 mL of a digestion buffer containing 0.05% collagenase P, 0.1% DNAse, and 0.02% Pronase in Gey's balanced salt solution (GBSS). Following two […] digestion incubations at 37° C. with thorough mixing after each incubation, the resulting cell suspension was filtered through a 100 μm nylon mesh, washed twice in GBSS with 0.3% bovine serum albumin (BSA), and resuspended in 10 mL GBSS/BSA. Eight mL of Histodenz (Sigma, Cat. No. D2158) was added to the cell suspension, and the entire volume was pipetted under 6 mL GBSS/BSA in order to generate a discontinuous density gradient. Following centrifugation for 20 min at 1,400 g with the brake set at zero, the desired cells were harvested from the interface between the two density volumes and washed once with PBS and once with DMEM medium supplemented with 2 mM L-glutamine, 10% fetal bovine serum, and 1% amphotericin-B (complete DMEM). Cells were immortalized using Lenti-SV40 (Capital Biosciences, Cat. No. CIP-0011) using manufacturer's protocol. The resulting cell line, designated PSC4, were maintained in tissue culture as an adherent monolayer in complete DMEM at 37° C. and 5% CO2.
MH194/HAS3 cells as described in part A above were trypsin-harvested at 80-90% confluency, washed twice with sterile Hanks Balanced Salt Solution (HBSS), and diluted with HBSS to a concentration of 4×10^6 cells/mL. Male C57BL/6 mice were obtained at 4-6 weeks from Taconic Farms and housed 4/cage. For tumor inoculations, mice were injected with 50 μL of cell suspension containing 2×10^5 MH194/HAS3 cells or parental MH194 cells along with 5×10^5 PSC4 (7×10^5 cells total) intramuscularly, adjacent to the right tibial periosteum.
Tumor volumes were measured by ultrasound as in Example 1A2. Approximately 15-30 frames out of 150-200 frames were analyzed and a tumor volume calculated and expressed in mm^3. When using the HA quantitation procedure described in Example 1A3, tumors grown from parental MH194+PSC4 cells contained 263±16 ng HA/mg tissue, whereas tumors grown from MH194/HAS3+PSC4 cells contained 1783±99 ng HA/mg tissue.
Mice containing parental MH194+PSC4 syngeneic tumors generated as described in Example 1C, with a mean tumor volume of 131±26 mm^3, were randomized into treatment groups, each containing 6 mice, such that the mean tumor volume of each group were substantially the same. Dexamethasone or saline (0.9% sodium chloride for injection) were administered intraperitoneally (IP) on days 0, 3, 7, 10, 14, and 17, and anti-PD-1 (BioXCell Inc, clone RMP1-14, Cat. No. BE0146) or saline were administered intraperitoneally (IP) on days 1, 4, 8, 11, 15, and 18, all at the dose levels indicated in Table 27. Tumor volumes were measured on days 0, 3, 7, 10, 14, 17, and 21. The middle dexamethasone dose level (3 mg/kg) was selected to approximate the human dose equivalent for clinical trials in which PEGPH20 is administered with dexamethasone to alleviate musculoskeletal discomfort.

[3] = Dex 1 mg/kg IP 24 h prior to saline or α-PD-1 4 mg/kg IP
[4] = Dex 3 mg/kg IP 24 h prior to saline or α-PD-1 4 mg/kg IP
[5] = Dex 5 mg/kg IP 24 h prior to saline or α-PD-1 4 mg/kg IP

Structure (SMILES): C[C@]12C=CC(=O)C=C1CC[C@@H]1[C@@H]2[C@@H](O)C[C@@]2(C)[C@H]1CC[C@]2(O)C(=O)CO [Prednisolone]
- Equivalent Potency [1]: 5 mg

Structure (SMILES): C[C@H]1C[C@@H]2[C@H]([C@@H](O)C[C@@]3(C)[C@H]2CC[C@]3(O)C(=O)COC(=O)CCC(=O)O)[C@@]2(C)C=CC(=O)C=C12 [Methylprednisolone sodium succinate]
- Equivalent Potency [1]: 4 mg

Structure (SMILES): C[C@@H]1C[C@H]2[C@@H]3CCC4=CC(=O)C=C[C@]4(C)[C@@]3(F)[C@@H](O)C[C@]2(C)[C@@]1(O)C(=O)CO [Dex]
- Tumor volume, Day 0 [2, 3]: 133 ± 8 mm^3
- Tumor volume, Day 0 [2, 4]: 133 ± 9 mm^3
- Tumor volume, Day 0 [2, 5]: 125 ± 10 mm^3
- Tumor volume, Day 3 [2, 3]: 240 ± 19 mm^3
- Tumor volume, Day 3 [2, 4]: 253 ± 17 mm^3
- Tumor volume, Day 3 [2, 5]: 251 ± 22 mm^3
- Tumor volume, Day 7 [2, 3]: 374 ± 39 mm^3
- Tumor volume, Day 7 [2, 4]: 436 ± 23 mm^3
- Tumor volume, Day 7 [2, 5]: 390 ± 46 mm^3
- Tumor volume, Day 10 [2, 3]: 581 ± 50 mm^3
- Tumor volume, Day 10 [2, 4]: 553 ± 63 mm^3
- Tumor volume, Day 10 [2, 5]: 462 ± 46 mm^3
- Tumor volume, Day 14 [2, 3]: 904 ± 81 mm^3
- Tumor volume, Day 14 [2, 4]: 759 ± 81 mm^3
- Tumor volume, Day 14 [2, 5]: 729 ± 77 mm^3
- Tumor volume, Day 17 [2, 3]: 1354 ± 147 mm^3
- Tumor volume, Day 17 [2, 4]: 1346 ± 109 mm^3
- Tumor volume, Day 17 [2, 5]: 1202 ± 118 mm^3
- Tumor volume, Day 21 [2, 3]: 1899 ± 155 mm^3
- Tumor volume, Day 21 [2, 4]: 1867 ± 130 mm^3
- Tumor volume, Day 21 [2, 5]: 1630 ± 126 mm^3
- TGI (tumor growth inhibition) [2, 3]: 19%
- TGI (tumor growth inhibition) [2, 4]: 21%
- TGI (tumor growth inhibition) [2, 5]: 31%

Structure (SMILES): C[C@]12CCC(=O)C=C1CC[C@@H]1[C@@H]2[C@@H](O)C[C@@]2(C)[C@H]1CC[C@]2(O)C(=O)CO [Hydrocortisone]
- Equivalent Potency [1]: 20 mg
